Test results: patent US20250092065A1, “2-(INDAZOL-5-YL)-6-(PIPERIDIN-4-YL)-1,7-NAPHTHYRIDINE DERIVATIVES AND RELATED COMPOUNDS AS MODULATORS FOR SPLICING NUCLEIC ACIDS AND FOR THE TREATMENT OF PROLIFERATIVE DISEASES” (REMIX THERAPEUTICS INC., priority 2022, published 2025)
Like-named read-outs stand apart in the source and are kept apart here.

Tests used:
HTT mRNA = experiment: RT-qPCR splicing assay, HTT mRNA canonical (CJ) and alternative (AJ) junction; format: cell-based, human; details: Homo sapiens
How it was run: (§1)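 Canonical and alternative-exon junction isoforms were quantified by RT-qPCR in cell lysates, with ΔCt against a housekeeper (GAPDH/GUSB/PPIA), then ΔΔCt vs DMSO, converted to 2^(−ΔΔCt) and percent response. K562 or A673 cells were exposed for 24 h to 11 concentrations (3-fold, top final 10 uM).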

MYB mRNA = experiment: RT-qPCR splicing assay, MYB mRNA canonical (CJ) and alternative (AJ) junction; format: cell-based, human; details: Homo sapiens
How it was run: as §1

SMN2 mRNA = experiment: RT-qPCR splicing assay, SMN2 mRNA; format: cell-based, human; details: Homo sapiens, canonical junction qPCR panel, Table 4; read-out: SMN2 IC50 (decrease in CJ mRNA levels)
How it was run: as §1

Target C [1] = experiment: RT-qPCR canonical junction panel assay, Target C mRNA; format: cell-based; details: Table 4, read-out: Target C IC50 (decrease in CJ mRNA levels)
Method: Compounds described herein were used to modulate RNA transcript abundance in cells. The expression of a target mRNA was measured by detecting the formation of an exon-exon junction in the canonical transcript (CJ). A compound mediated exon-inclusion event was detected by observing an increase in formation of a new junction with an alternative exon (AJ). Real-time qPCR assays were used to detect these splicing switches and interrogate the potency of various compounds towards different target genes. A high-throughput real time quantitative PCR (RT-qPCR) assay was developed to measure these two isoforms of the mRNA (CJ and AJ) for exemplary genes, such as HTT, SMN2, and MYB, together with a control housekeeping gene, GAPDH or GUSB or PPIA, used for normalization. Briefly, the A673 or K562 cell line was treated with various compounds described herein (e.g., compounds of Formula (I)). After treatment, the levels of the HTT, MYB, or SMN2 mRNA targets were determined from each sample of cell lysate by cDNA synthesis followed by qPCR.
The data analysis was performed by first determining the ΔCt vs the housekeeper gene. This ΔCt was then normalized against the DMSO control (ΔΔCt) and converted to RQ (relative quantification) using the 2^(−ΔΔCt) equation. The RQ were then converted to a percentage response by arbitrarily setting an assay window of 3.5 and 4.0 ΔCt for HTT-CJ and MYB-CJ respectively and an assay window of 9 and 3 ΔCt for HTT-AJ and MYB-AJ in 96 well format (50,000 K562 cells/well and 15,000 A673 cells per well) and an assay window of 3 and 4 ΔCt for HTT-CJ and MYB-CJ respectively and an assay window of 5 and 3 ΔCt for HTT-AJ and MYB-AJ respectively in 384 well format (8,000 K562 cells/well example). […] The percentage response was then fitted to the 4 parametric logistic equation to evaluate the concentration dependence of compound treatment. The increase in AJ mRNA is reported as AC50 (compound concentration having 50% response in AJ increase) while the decrease in CJ mRNA levels is reported as IC50 (compound concentration having […] in CJ decrease).
Additional studies were carried out for a larger panel of genes using the protocol provided above. The junction between flanking upstream and downstream exons was used to design canonical junction Qpcr assays. At least one of the forward primer, reverse primer or the CY5-labeled 5′ nuclease probe (with 3′ quencher such as ZEN/Iowa Black FQ) was designed to overlap with the exon junction to capture the CJ Mrna transcript. BLAST was used to confirm the specificity of the probeset and parameters suCH As melting temperature, GC content, amplicon size, and primer dimer formation are considered during their design. Data for the decrease in CJ Mrna levels for four exemplary genes (HTT, SMN2, MYB, and Target C) analyzed in this panel are reported as IC50 (compound concentration having […] in CJ decrease).

K562 cells = experiment: Cell Titer Glo 2.0 cell viability (toxicity) assay, K562; details: 500 cells/well, 72 hours
MYB = experiment: HiBiT protein abundance assay, MYB (K562 HiBiT knock-in); format: cell-based, human; details: HiBiT knock-in K562 cells, 24 hours, top dose 10 μM
How it was run: (§2)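 K562 HiBiT knock-in, 24 h, 37 °C, top 10 μM final, 3-fold ×10, DMSO ≤0.25%. Lytic HiBiT luminescence; PC = parental K562, NC = DMSO; 4PL IC50.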

HTT = experiment: HiBiT protein abundance assay, HTT (K562 HiBiT knock-in); format: cell-based, human; details: HiBiT knock-in K562 cells, 24 hours, top dose 10 μM
How it was run: as §2

Target C [2] = experiment: HiBiT protein abundance assay, Target C (K562 HiBiT knock-in); format: cell-based, human; details: HiBiT knock-in K562 cells, 24 hours, top dose 10 μM
How it was run: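 K562 HiBiT knock-in cells (10000/well) were treated 24 h at 37° C with a 10-point 3-fold dilution series (top 10 μM final, ≤0.25% DMSO). HiBiT luminescence was read after lytic LgBiT detection. Percent response used unmodified K562 and DMSO-treated knock-in controls, and IC50 came from a four-parameter fit at 50% of untreated.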

[3] = HTT alternative junction mRNA, RT-qPCR, read-out: HTT AJ (increase in AJ mRNA, AC50)
[4] = HTT canonical junction mRNA, RT-qPCR, read-out: HTT CJ (decrease in CJ mRNA levels, IC50)
[5] = canonical junction qPCR panel, Table 4, read-out: HTT IC50 (decrease in CJ mRNA levels)
[6] = MYB alternative junction mRNA, RT-qPCR, read-out: MYB AJ (increase in AJ mRNA, AC50)
[7] = MYB canonical junction mRNA, RT-qPCR, read-out: MYB CJ (decrease in CJ mRNA levels, IC50)
[8] = canonical junction qPCR panel, Table 4, read-out: MYB IC50 (decrease in CJ mRNA levels)
[9] = RT-qPCR, HTT alternative junction mRNA increase, read-out: HTT AJ (increase in alternative junction mRNA, AC50)
[10] = RT-qPCR, HTT canonical junction mRNA decrease, read-out: HTT CJ (decrease in canonical junction mRNA, IC50)
[11] = RT-qPCR, MYB alternative junction mRNA increase, read-out: MYB AJ (increase in alternative junction mRNA, AC50)
[12] = RT-qPCR, MYB canonical junction mRNA decrease, read-out: MYB CJ (decrease in canonical junction mRNA, IC50)

IC50 (HTT mRNA; [4])	IC50 (HTT mRNA; [5])	IC50 (MYB mRNA; [7])	IC50 (MYB mRNA; [8])	IC50 (SMN2 mRNA)	IC50 (Target C [1])	IC50 (HTT mRNA; [10])	IC50 (MYB mRNA; [12])	IC50 (MYB)	IC50 (HTT)	IC50 (Target C [2])	SMILES	AC50 (HTT mRNA; [3])	AC50 (MYB mRNA; [6])	AC50 (HTT mRNA; [9])	AC50 (MYB mRNA; [11])	Effect of Exemplary Compounds on Cell Viability, K562 (K562 cells)
	> 10000 nM		100 to 1000 nM		> 10000 nM	> 10000 nM	100 to 1000 nM				Cc1c(O)c(-c2nc(C3CCC3)c3cc(N4C[C@H](C)N[C@@H](C)C4)ccc3n2)cc2cn(C)nc12 (single isomer, unassigned) [Compound 794]			1000 to 10000 nM	100 to 1000 nM	B (B represents 100-1000 nM)
	> 10000 nM		1000 to 10000 nM		> 10000 nM	> 10000 nM	1000 to 10000 nM				Cc1cn2nc(-c3ncc4cc(N5C[C@H](C)N[C@@H](C)C5)ccc4n3)cc(C)c2n1 (single isomer, unassigned) [Compound 798]			> 10000 nM	100 to 1000 nM	C (C represents 1000-9999 nM)
	1000 to 10000 nM		1000 to 10000 nM		> 10000 nM	1000 to 10000 nM	1000 to 10000 nM				Cc1c(O)c(-c2nc(C3CCC3)c3cc(N4C[C@@H](C)N[C@@H](C)C4)ccc3n2)cc2cn(C)nc12 [Compound 790, 5-{4-cyclobutyl-6-[(3R,5S)-3,5-dimethylpiperazin-1-yl]quinazolin-2-yl}-2,7-dimethylindazol-6-ol]			> 10000 nM	1000 to 10000 nM	C (C represents 1000-9999 nM)
	1000 to 10000 nM		1000 to 10000 nM		> 10000 nM	1000 to 10000 nM	1000 to 10000 nM				C[C@@H]1CN(c2ccc3nc(-c4cc5cn(C)nc5cc4O)nc(C4CCC4)c3c2)C[C@H](C)N1 [Compound 791, 5-{4-cyclobutyl-6-[(3R,5S)-3,5-dimethylpiperazin-1-yl]quinazolin-2-yl}-2-methylindazol-6-ol]			> 10000 nM	1000 to 10000 nM	B (B represents 100-1000 nM)
	100 to 1000 nM		100 to 1000 nM		1000 to 10000 nM	100 to 1000 nM	100 to 1000 nM				Cc1c(O)c(-c2ncc3cc(N4CCNC5(CC5)C4)ccc3n2)cc2cn(C)nc12 [Compound 792, 5-(6-{4,7-diazaspiro[2.5]octan-7-yl}quinazolin-2-yl)-2,7-dimethylindazol-6-ol]			1000 to 10000 nM	100 to 1000 nM	B (B represents 100-1000 nM)
	1000 to 10000 nM		100 to 1000 nM		> 10000 nM	1000 to 10000 nM	100 to 1000 nM				Cc1nc(-c2cc3cn(C)nc3c(C)c2O)nc2ccc(N3CCNC4(CC4)C3)cc12 [Compound 793, 5-(6-{4,7-diazaspiro[2.5]octan-7-yl}-4-methylquinazolin-2-yl)-2,7-dimethylindazol-6-ol]			1000 to 10000 nM	100 to 1000 nM	B (B represents 100-1000 nM)
	100 to 1000 nM		100 to 1000 nM		100 to 1000 nM	100 to 1000 nM	100 to 1000 nM				C[C@H]1CN(c2ccc3nc(-c4cc(F)c5nn(C)cc5c4)ncc3c2)C[C@H](C)N1 [Compound 802, 6-[(3S,5S)-3,5-dimethylpiperazin-1-yl]-2-(7-fluoro-2-methylindazol-5-yl)quinazoline]			100 to 1000 nM	100 to 1000 nM	B (B represents 100-1000 nM)

Second part, the compound before the results:

SMILES	IC50 (HTT mRNA; [4])	IC50 (HTT mRNA; [5])	IC50 (MYB mRNA; [7])	IC50 (MYB mRNA; [8])	IC50 (SMN2 mRNA)	IC50 (Target C [1])	IC50 (HTT mRNA; [10])	IC50 (MYB mRNA; [12])	IC50 (MYB)	IC50 (HTT)	IC50 (Target C [2])	AC50 (HTT mRNA; [3])	AC50 (MYB mRNA; [6])	AC50 (HTT mRNA; [9])	AC50 (MYB mRNA; [11])	Effect of Exemplary Compounds on Cell Viability, K562 (K562 cells)
Cc1nc2c(F)c(O)c(-c3ccc4nc(N5CC[C@@H](NC6(CF)CC6)C5)ccc4n3)cc2o1 (single isomer, unassigned) [Compound 372]	< 100 nM	< 100 nM	< 100 nM	< 100 nM	< 100 nM	< 100 nM						< 100 nM	< 100 nM			
Cc1nc2c(F)c(O)c(-c3ccc4nc(N5CCC(NCC6CC6)C5)ccc4n3)cc2o1 (centres unmarked) [Cmpd 294]	< 100 nM	< 100 nM	< 100 nM	< 100 nM	< 100 nM	< 100 nM						< 100 nM	< 100 nM			
Cc1c(O)c(-c2ccc3nc(N4CC[C@H](NC5CC5)C4)ccc3n2)cc2cn(C)nc12 [Compound 260]	< 100 nM	< 100 nM	< 100 nM	< 100 nM	< 100 nM				< 100 nM	< 100 nM	< 100 nM	< 100 nM	< 100 nM			B (B represents 100-1000 nM)
Cc1cn2nc(-c3ncc4cc(N5CCNC6(CC6)C5)ccc4n3)cc(C)c2n1 [Compound 795, 2-(2,8-dimethylimidazo[1,2-b]pyridazin-6-yl)-6-(4,7-diazaspiro[2.5]octan-7-yl)quinazoline]		> 10000 nM		1000 to 10000 nM		> 10000 nM	> 10000 nM	1000 to 10000 nM						> 10000 nM	1000 to 10000 nM	C (C represents 1000-9999 nM)
Cn1cc2cc(-c3ncc4cc(N5CCC(N6CCC6)CC5)ccc4n3)c(O)cc2n1 [Compound 801, 5-{6-[4-(azetidin-1-yl)piperidin-1-yl]quinazolin-2-yl}-2-methylindazol-6-ol]		1000 to 10000 nM		100 to 1000 nM		1000 to 10000 nM	1000 to 10000 nM	100 to 1000 nM						1000 to 10000 nM	1000 to 10000 nM	B (B represents 100-1000 nM)
Cc1cn2nc(-c3ccc4cc(N5CCNC6(CC6)C5)cc(F)c4n3)cc(C)c2n1 [Compound 804, 6-{4,7-diazaspiro[2.5]octan-7-yl}-2-{2,8-dimethylimidazo[1,2-b]pyridazin-6-yl}-8-fluoroquinoline]		100 to 1000 nM		100 to 1000 nM		100 to 1000 nM	100 to 1000 nM	100 to 1000 nM						100 to 1000 nM	100 to 1000 nM	B (B represents 100-1000 nM)
